Source: patent publication US20230322747A1, “OXADIAZOLE HDAC6 INHIBITORS AND USES THEREOF” (Eikonizo Therapeutics, Inc., priority 2022, published 2023)

Target: Human HDAC6 (Homo sapiens (Human), UniProt Q9UBN7)
Test: HDAC6 enzymatic activity assay (Caliper endpoint or fluorogenic format)
Assay type: biochemical
Conditions: in vitro enzymatic

Human HDAC6, sequence (Q9UBN7 whole entry): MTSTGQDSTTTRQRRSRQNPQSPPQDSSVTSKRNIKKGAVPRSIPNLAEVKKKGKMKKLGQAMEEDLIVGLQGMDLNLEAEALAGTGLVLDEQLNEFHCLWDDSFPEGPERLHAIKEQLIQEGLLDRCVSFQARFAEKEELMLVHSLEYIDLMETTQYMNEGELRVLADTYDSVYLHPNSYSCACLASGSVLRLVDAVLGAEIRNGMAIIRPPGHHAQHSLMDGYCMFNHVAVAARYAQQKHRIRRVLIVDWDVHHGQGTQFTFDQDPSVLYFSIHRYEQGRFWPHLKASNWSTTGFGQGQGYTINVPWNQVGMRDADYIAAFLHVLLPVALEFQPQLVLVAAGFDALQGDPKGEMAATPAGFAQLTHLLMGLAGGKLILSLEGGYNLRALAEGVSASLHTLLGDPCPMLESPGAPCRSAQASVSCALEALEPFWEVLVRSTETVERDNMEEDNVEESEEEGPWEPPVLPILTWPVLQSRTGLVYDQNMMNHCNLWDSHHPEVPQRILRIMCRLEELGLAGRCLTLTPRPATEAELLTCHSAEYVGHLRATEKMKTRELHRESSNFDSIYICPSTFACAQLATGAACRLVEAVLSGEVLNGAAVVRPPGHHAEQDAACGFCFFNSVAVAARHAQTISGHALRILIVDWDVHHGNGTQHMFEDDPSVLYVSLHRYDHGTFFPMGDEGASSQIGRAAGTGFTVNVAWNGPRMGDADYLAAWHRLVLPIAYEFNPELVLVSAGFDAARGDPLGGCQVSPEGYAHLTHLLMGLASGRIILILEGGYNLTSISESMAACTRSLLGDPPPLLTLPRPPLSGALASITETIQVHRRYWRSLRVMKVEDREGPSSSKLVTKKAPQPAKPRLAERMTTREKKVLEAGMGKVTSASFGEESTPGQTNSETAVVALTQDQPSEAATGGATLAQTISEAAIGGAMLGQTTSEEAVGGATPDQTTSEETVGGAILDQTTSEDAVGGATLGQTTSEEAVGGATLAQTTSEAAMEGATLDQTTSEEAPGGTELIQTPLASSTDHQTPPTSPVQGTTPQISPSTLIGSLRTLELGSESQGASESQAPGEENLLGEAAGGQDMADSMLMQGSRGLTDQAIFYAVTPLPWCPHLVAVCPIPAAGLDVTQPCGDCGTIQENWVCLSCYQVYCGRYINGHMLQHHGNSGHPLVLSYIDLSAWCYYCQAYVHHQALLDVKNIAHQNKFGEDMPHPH

Structure (SMILES) | IC50 [nM]
CC(Oc1ccc(F)cc1)c1ccc(-c2nnc(C(F)F)o2)cn1 (stereo not shown) [AAA, 2-(Difluoromethyl)-5-(6-(1-(4-fluorophenoxy)ethyl)pyridin-3-yl)-1,3,4-oxadiazole] | 1000 to 10000
FC(F)c1nnc(-c2ccc(C(F)(F)Oc3cccc4ccccc34)nc2)o1 [Compound 14, 2-(6-(difluoro(naphthalen-1-yloxy)methyl)pyridin-3-yl)-5-(difluoromethyl)-1,3,4-oxadiazole] | 100 to 1000
Fc1ccc(OCc2ncc(-c3nnc(C(F)F)o3)cn2)cc1F [Compound 22] | 1 to 100
FC(F)c1nnc(-c2ccc(COCC3CC4CCC(C3)N4)nc2)o1 (stereo not shown) [Compound 23] | 100 to 1000
CN1C[C@@]2(COCc3ccc(-c4nnc(C(F)F)o4)cn3)C[C@@H]1CO2 [Compound 25] | 100 to 1000
FC(F)c1nnc(-c2ccc(COc3cccc4ccncc34)nc2)o1 [Compound 33] | 1 to 100
Cc1nc2ccc(OCc3ccc(-c4nnc(C(F)F)o4)cn3)cc2o1 [Compound 38] | 1 to 100
Cn1ccc(OCc2ccc(-c3nnc(C(F)F)o3)cn2)n1 [Compound 66] | 1 to 100
FC(F)c1nnc(-c2ccc(COc3ncccn3)nc2)o1 [Compound 78] | 100 to 1000
Cc1ncc(F)c(OCc2ccc(-c3nnc(C(F)F)o3)cn2)n1 [Compound 81] | 1 to 100
FC(F)c1nnc(-c2ccc(COc3nccn4ccnc34)nc2)o1 [Compound 86, 2-(difluoromethyl)-5-(6-((imidazo[1,2-a]pyrazin-8-yloxy)methyl)pyridin-3-yl)-1,3,4-oxadiazole] | 1 to 100
FC(F)c1nnc(-c2ccc(COc3nnc4ccccn34)nc2)o1 [Compound 87] | 1 to 100
Cc1ccc2nnc(OCc3ccc(-c4nnc(C(F)F)o4)cn3)n2c1 [Compound 89] | 1 to 100
FC(F)c1nnc(-c2ccc(COc3ccc(C(F)(F)F)cn3)nc2)o1 [Compound 94] | 100 to 1000
Cc1ccc2ncnc(OCc3ccc(-c4nnc(C(F)F)o4)cn3)c2c1 [Compound 95] | 1 to 100
Cc1cccc2c(OCc3ccc(-c4nnc(C(F)F)o4)cn3)ncnc12 [Compound 96] | 1 to 100
FC(F)c1nnc(-c2ccc(COc3ncnc4cc(Cl)ccc34)nc2)o1 [Compound 98] | 1 to 100

Structure (SMILES) | IC50 [nM]
FC(F)c1nnc(-c2ccc(COc3ncco3)nc2)o1 [Compound 100] | 100 to 1000
FC(F)c1nnc(-c2ccc(COc3cccnn3)nc2)o1 [Compound 103] | 100 to 1000
FC(F)c1nnc(-c2ccc(COc3ccncn3)nc2)o1 [Compound 104] | 1 to 100
Cn1ccnc1OCc1ccc(-c2nnc(C(F)F)o2)cn1 [Compound 105] | 100 to 1000
Fc1cncnc1OCc1ccc(-c2nnc(C(F)F)o2)cn1 [Compound 107] | 1 to 100
FC(F)c1nnc(-c2ccc(COC3CC4CCC(C3)O4)nc2)o1 (stereo not shown) [Compound 109] | 100 to 1000
FC(F)c1nnc(-c2ccc(CO[C@@H]3C[C@H]4CC[C@@H](C3)O4)nc2)o1 [Compound 110] | 100 to 1000
CN1[C@@H]2CC[C@H]1C[C@H](OCc1ccc(-c3nnc(C(F)F)o3)cn1)C2 [Compound 113] | 1000 to 10000
N#Cc1ccc(COCc2ccc(-c3nnc(C(F)F)o3)cn2)s1 [Compound 120] | 100 to 1000
CN1CCc2cc(OCc3ccc(-c4nnc(C(F)F)o4)cn3)ccc2C1 [Compound 121] | 100 to 1000
Fc1cc(-c2nnc(C(F)F)o2)cnc1COc1cccn2ccnc12 [Compound 123] | 1 to 100
Fc1cc(-c2nnc(C(F)F)o2)cnc1COc1ccc2cccnc2c1 [Compound 124] | 1 to 100
Fc1cc(-c2nnc(C(F)F)o2)cnc1COc1cccc2cnccc12 [Compound 125] | 1 to 100
Fc1cc(-c2nnc(C(F)F)o2)cnc1COc1cccc2ccncc12 [Compound 126] | 1 to 100
N#Cc1ccccc1OCc1ncc(-c2nnc(C(F)F)o2)cc1F [Compound 127] | 1 to 100
C#Cc1cccc(OCc2ncc(-c3nnc(C(F)F)o3)cc2F)c1 [Compound 128] | 1 to 100
Fc1ccc(OCc2ncc(-c3nnc(C(F)F)o3)cc2F)cc1F [Compound 129] | 1 to 100
